According to patent US9408910B2, “Anticancer prodrug activated by radiation or ultraviolet treatment and use thereof” (priority 2011, dated 2016):
Numbered stars: 1 amine (or outer) side, 2 acyl side, 3 side chain; on linkers, the order of the positions; unused ones are H or OH. Square brackets hold non-standard residues; d marks the D form. Peptide text beside a SMILES is read from it. * marks the point of attachment. Doxorubicin(3'-N) = COc1cccc2c1C(=O)c1c(O)c3c(c(O)c1C2=O)C[C@@](O)(C(=O)CO)C[C@@H]3O[C@H]1C[C@H](N*)[C@H](O)[C@H](C)O1; PABC = O=C(OCc1ccc(N[*:1])cc1)[*:2]

Tests used:
SCC 7 cells = assay: Cytotoxicity evaluation by in vitro MTT assay (Example 4); format: cell-based; details: no caspase-3 expression
Description: Cytotoxicity was evaluated by in vitro MTT assay.
In detail, SCC 7 cells were radiated at a dose of 1 Gy, 5 Gy, or 10 Gy, and then the medium was removed after 2 h, 6 h, 12 h, 24 h, or 48 h. 20 μl of MTT solution per 100 μl of medium was treated, and then reacted at 30° C. for 1 hour in the dark. Thereafter, the cells were washed with PBS three times, and the medium was removed. 100 μl of DMSO was added to dissolve MTT formazan, followed by ELASA (test wavelength: 570 nm).
That is, total 6 experiments were carried out, and the results are shown FIGS. 9a to 9f. a) Radiation of cells at a radiation dose of 1 Gy, 5 Gy, 10 Gy, 15 Gy, 20 Gy, followed by MTT assay (radiation MTT assay), b) Treatment of cells with doxorubicin at a dose of 0.1 μM, 0.5 μM, 1 μM, and 5 μM, followed by MTT assay (Doxorubicin MIT assay), c) Treatment of cells with anticancer prodrug (KGDEVD-DOX) prepared in Example 1, followed by MTT assay (KGDEVD-DOX MTT assay), d) Treatment of cells with caspase-3-treated anticancer prodrug (KGDEVD-DOX) prepared in Example 1, followed by MIT assay (Cleaved Dox by Caspase-3 MIT assay), e) Treatment of cells with doxorubicin and radiation, followed by MIT assay (Doxorubicin+RT MTT assay), f) Treatment of cells with […], followed by MTT assay (KGDEVD-DOX+RT MTT assay). […]

[1] = system: tumor mouse models transplanted with SCC 7 cell line; details: 5 Gy radiation, then 10 mg/kg i.v. every day for 3 days; FIG. 18
Description: That is, tumor mouse models transplanted with SCC 7 cell line were radiated using a gamma knife (5 Gy). 24 hrs after radiation, the caspase-3 sensitive anticancer prodrug was administered into the animals via intravenous injection (10 mg/kg). At this time, the same dose of the drug was administered into the animals every day for 3 days, and then tumor growth and survival rate were measured every day until the experiments were terminated after radiation. The organs were removed from each experimental group after completion of the experiment, and cytotoxicity of the drug was examined.

[2] = system: tumor mouse models transplanted with SCC 7 cell line; assay: Anti-tumor therapeutic effect of the anticancer prodrug with radiation (Example 3); format: in vivo; details: administered together with radiation (5 Gy, gamma knife); prodrug 3 mg/kg i.v. 24 hr after radiation and again after 2 days; FIG. 8

Structure (SMILES) | cytotoxicity when caspase-3 was not expressed (SCC 7 cells) | side effects (cytotoxicity of the drug in removed organs) [1] | tumor size (tumor growth) [2]
COc1cccc2c1C(=O)c1c(O)c3c(c(O)c1C2=O)C[C@@](O)(C(=O)CO)C[C@@H]3O[C@H]1C[C@H](NC(=O)OCc2ccc(NC(=O)[C@H](CC(=O)O)NC(=O)[C@@H](NC(=O)[C@H](CCC(=O)O)NC(=O)[C@H](CC(=O)O)NC(=O)CNC(=O)[C@H](CCCCN)NC(C)=O)C(C)C)cc2)[C@H](O)[C@H](C)O1 [KGDEVD-DOX, Ac-Lys-Gly-Asp-Glu-Val-Asp-PABC-DOX] (Ac-KGDEVD[PABC]-{Doxorubicin(3'-N)}) | no cytotoxicity | reduced side effects | –
COc1cccc2c1C(=O)c1c(O)c3c(c(O)c1C2=O)C[C@@](O)(C(=O)CO)C[C@@H]3O[C@H]1C[C@H](N)[C@H](O)[C@H](C)O1 [doxorubicin] | – | – | tumor was reduced in size
